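Where inhibition never reached the appropriate level, the endpoint shown equals the highest concentration tested. Otherwise, values were interpolated linearly from a five-concentration, 48-hour dose response in 96-well plates. The concentration for 50% growth inhibition is given as GI50.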 Active and inactive are the calls of the source. No stated cut-off is given here; in the data, active = GI50 up to about 1.1 µM and inactive = higher.
Key:
Experiment in all cases: DTP human tumour cell line panel, 48 h
NCI-H522 = system: NCI-H522
OVCAR-8 = system: OVCAR-8
A498 = system: A498
RPMI-8226 = system: RPMI-8226
SF-295 = system: SF-295
CAKI-1 = system: CAKI-1
SK-MEL-28 = system: SK-MEL-28
MDA-MB-231 = system: MDA-MB-231
UACC-257 = system: UACC-257
HOP-92 = system: HOP-92
HL-60 = system: HL-60
DU-145 = system: DU-145
OVCAR-5 = system: OVCAR-5
SNB-75 = system: SNB-75
Hs-578T = system: Hs-578T
Malme-3M = system: Malme-3M
SN12C = system: SN12C
HCT-15 = system: HCT-15
OVCAR-4 = system: OVCAR-4
HCC 2998 = system: HCC 2998

Row | SMILES | GI50 (NCI-H522) | GI50 (OVCAR-8) | GI50 (A498) | GI50 (RPMI-8226) | GI50 (SF-295) | GI50 (CAKI-1) | GI50 (SK-MEL-28) | GI50 (MDA-MB-231) | GI50 (UACC-257) | GI50 (HOP-92) | GI50 (HL-60) | GI50 (DU-145) | GI50 (OVCAR-5) | GI50 (SNB-75) | GI50 (Hs-578T) | GI50 (Malme-3M) | GI50 (SN12C) | GI50 (HCT-15) | GI50 (OVCAR-4) | GI50 (HCC 2998)
1 | C1=Cc2ccccc2C1.C=C(C)c1ccccc1.[N-]=[N+]=Nc1ccccc1 | 34.3 µM (inactive) | > 100 µM (inactive) | > 100 µM (inactive) | 80 µM (inactive) | > 100 µM (inactive) | > 100 µM (inactive) | > 100 µM (inactive) | > 100 µM (inactive) | 41 µM (inactive) | 47.1 µM (inactive) | 62.4 µM (inactive) | > 100 µM (inactive) | > 100 µM (inactive) | 49 µM (inactive) | 39.1 µM (inactive) | > 100 µM (inactive) | > 100 µM (inactive) | > 100 µM | > 100 µM (inactive) | 
2 | COc1ccccc1C1SCC(=O)N1c1ccc(-c2ccc(-n3c(-c4ccccc4)nc4ccccc4c3=O)cc2)cc1 (stereo unspecified) | > 100 µM (inactive) | > 100 µM (inactive) | > 100 µM (inactive) | > 100 µM (inactive) | > 100 µM (inactive) | > 100 µM (inactive) | > 100 µM (inactive) | > 100 µM (inactive) | > 100 µM (inactive) |  | > 100 µM (inactive) | > 100 µM (inactive) | > 100 µM (inactive) | > 100 µM (inactive) | > 100 µM (inactive) | > 100 µM (inactive) | > 100 µM (inactive) | > 100 µM | > 10 µM (inactive) | > 100 µM (inactive)
3 | COC1CC(C)(NC(C)=O)C2OC(c3ccccc3)OCC2O1 (stereo unspecified) | > 100 µM (inactive) | > 100 µM (inactive) | > 100 µM (inactive) | > 100 µM (inactive) | > 100 µM (inactive) | > 100 µM (inactive) | > 100 µM (inactive) | > 100 µM (inactive) | > 100 µM (inactive) | > 100 µM (inactive) | > 100 µM (inactive) | > 100 µM (inactive) | > 100 µM (inactive) | > 100 µM (inactive) | > 100 µM (inactive) | > 100 µM (inactive) | > 100 µM (inactive) | > 100 µM | > 100 µM (inactive) | 
4 | Cc1ccc2c(=O)cc(-c3ccc(-c4ccccc4)s3)[nH]c2n1 | > 19.7 µM (inactive) | > 58.3 µM (inactive) | 14.2 µM (inactive) | 4.53 µM (inactive) | > 28.8 µM (inactive) | 45 µM (inactive) | > 100 µM (inactive) | 39.7 µM (inactive) | 8.47 µM (inactive) | > 41.2 µM (inactive) | > 23.6 µM (inactive) | > 100 µM (inactive) | > 100 µM (inactive) | 72.4 µM (inactive) | > 46.7 µM (inactive) | > 42.9 µM (inactive) | 58.6 µM (inactive) | > 28.8 µM | 38.5 µM (inactive) | 
5 | Cc1n[nH]c(=O)n1N1C(=O)c2ccccc2C1=O |  | > 100 µM (inactive) | > 100 µM (inactive) |  | > 100 µM (inactive) | > 100 µM (inactive) | > 100 µM (inactive) | > 100 µM (inactive) | > 100 µM (inactive) | > 100 µM (inactive) |  | > 100 µM (inactive) | > 100 µM (inactive) | 26.4 µM (inactive) | > 100 µM (inactive) | > 100 µM (inactive) | > 100 µM (inactive) | > 100 µM | > 100 µM (inactive) | > 100 µM (inactive)
6 | CCC(c1ccccc1)c1cc(C(C)(C)C)cc(C(C)(C)C)c1O (stereo unspecified) | 13.7 µM (inactive) | 17.3 µM (inactive) | 19.7 µM (inactive) | 13.6 µM (inactive) | 13.9 µM (inactive) | 16.2 µM (inactive) | 18.3 µM (inactive) | 18.1 µM (inactive) | 15.2 µM (inactive) | 16.5 µM (inactive) |  | 19.1 µM (inactive) | 13.7 µM (inactive) | 14.2 µM (inactive) | 16.3 µM (inactive) | 13.9 µM (inactive) | 17.3 µM (inactive) | 16.8 µM | 15.8 µM (inactive) | 15.8 µM (inactive)
7 | CSc1c(C#N)c(=O)n(N)c2c1c(C)nn2-c1ccccc1 | 22.9 µM (inactive) | 20.8 µM (inactive) | 21.4 µM (inactive) | 21.9 µM (inactive) |  | 19.9 µM (inactive) | 35.4 µM (inactive) | 17.6 µM (inactive) | 22 µM (inactive) |  | 26.2 µM (inactive) | 37.2 µM (inactive) | 24.1 µM (inactive) | 28.2 µM (inactive) | 51.4 µM (inactive) | 22.4 µM (inactive) | 34.4 µM (inactive) | 22.1 µM | 23.6 µM (inactive) | 18.1 µM (inactive)
8 | Cc1c(/C=N\NC(=S)N2CCN(C(=S)N/N=C\c3c(C)n(C)n(-c4ccccc4)c3=O)CC2)c(=O)n(-c2ccccc2)n1C | 60.7 µM (inactive) |  | 65.3 µM (inactive) |  | 28.4 µM (inactive) | 82.6 µM (inactive) |  | 24 µM (inactive) | 26.8 µM (inactive) | 40.9 µM (inactive) |  | 56 µM (inactive) | > 100 µM (inactive) | 21.8 µM (inactive) | 33 µM (inactive) | 72.4 µM (inactive) |  | 46.9 µM | > 100 µM (inactive) | 45.4 µM (inactive)
9 | COC(=O)c1cc2c(cc1CC1Cc3cc4c(cc3C1=O)CCC4)CCC2 (stereo unspecified) | 34.1 µM (inactive) | 74 µM (inactive) | 56 µM (inactive) | 25 µM (inactive) | 30.7 µM (inactive) | > 100 µM (inactive) | 76 µM (inactive) | 53.8 µM (inactive) | 39.1 µM (inactive) |  | > 100 µM (inactive) | > 100 µM (inactive) | > 100 µM (inactive) | 54.1 µM (inactive) | 15 µM (inactive) | 53 µM (inactive) | 57.5 µM (inactive) | 36.3 µM | 50.4 µM (inactive) | 43.7 µM (inactive)
10 | O=C1CSCC(=O)Nc2ccccc2N1 | > 100 µM (inactive) | > 100 µM (inactive) | > 100 µM (inactive) | > 100 µM (inactive) | > 100 µM (inactive) | > 100 µM (inactive) | > 100 µM (inactive) | > 100 µM (inactive) | > 100 µM (inactive) | > 100 µM (inactive) | > 100 µM (inactive) | > 100 µM (inactive) | > 100 µM (inactive) |  | > 100 µM (inactive) | > 100 µM (inactive) | > 100 µM (inactive) | > 100 µM | > 100 µM (inactive) | 
11 | CCOC(=O)C1=NN(c2ccc([N+](=O)[O-])cc2)[C@@]2(C)C[C@]3(c4ccccc4)N(c4ccc([N+](=O)[O-])cc4)N=C(C(=O)OCC)N3c3ccccc3N12 | > 100 µM (inactive) | > 100 µM (inactive) | > 100 µM (inactive) | > 100 µM (inactive) | > 100 µM (inactive) | > 100 µM (inactive) | > 100 µM (inactive) | 4.51 µM (inactive) | > 100 µM (inactive) |  | > 100 µM (inactive) | > 100 µM (inactive) | > 100 µM (inactive) | > 100 µM (inactive) | > 100 µM (inactive) | > 100 µM (inactive) | > 100 µM (inactive) | > 100 µM | > 100 µM (inactive) | > 100 µM (inactive)

Source: ChEMBL document CHEMBL1201862, “PubChem BioAssay data set” (2004)
